Laboratory results from patent publication US8980226B2, “Aerosolized fosfomycin/aminoglycoside combination for the treatment of bacterial respiratory infections” (Gilead Sciences, Inc., priority 2004, dated 2015).

What was measured:
E. coli ATCC 25922 = experiment: Animal efficacy, rat lung infection, aerosol administration; assay type: in vivo; settings: aerosol administration of a 40 mg/mL solution of tobramycin alone (FIG. 18)
Description: The in vivo efficacy of aerosolized fosfomycin alone, tobramycin alone and combinations of fosfomycin plus tobramycin were evaluated against E. coli ATCC 25922 and P. aeruginosa ATCC 27853 in rat lungs. The bacterial inoculum used to establish the rat lung infections consisted of a mixture of bacteria and agarose beads. E. coli ATCC 25922 or P. aeruginosa ATCC 27853 was streaked onto blood agar plates and incubated for 18-24 hours at 35° C. Two to three colonies were inoculated into 10 mL Tryptic Soy Broth (hereafter referred to as TSB) and incubated statically at 35° C. for 1.5 to 2 hours. The culture was adjusted to an optical density of 0.1 (625 nm) in fresh TSB and then diluted 1:5 in TSB. One milliliter of bacterial suspension (approximately 10^7 CFU/mL) was added to 10 mL of a 2% noble agar solution and briefly mixed by inversion. The mixture was added to 150 mL of heavy white mineral oil equilibrated to 55° C. and stirred on ice for 5 minutes. The cooled suspension was poured into a 250 mL centrifuge tube and centrifuged at 3,000 rpm, 4° C., for 10 minutes. The supernatant was decanted off, the pellet resuspended in 25 mL of normal sterile saline, and transferred to a 50 mL conical centrifuge tube. […]
Bacterial killing was evaluated 18 hours after the last exposure. […] The lungs were removed aseptically, excess tissue removed and the lung weight determined. […]

[1] = tested on: susceptible P. aeruginosa; settings: typical values, literature; cited from earlier work

Compound: NC[C@H]1O[C@H](O[C@H]2[C@H](O)[C@@H](O[C@H]3O[C@H](CO)[C@@H](O)[C@H](N)[C@H]3O)[C@H](N)C[C@@H]2N)[C@H](N)C[C@@H]1O [Tobramycin]
- killing of E. coli in the rat lung (E. coli ATCC 25922): 2 log 10
- MICs of susceptible P. aeruginosa [1]: less than 2 μg/mL
